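Compound exposure: 48 hours, 5 concentrations, 96-well plates. GI50 is the concentration that inhibits growth by half.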 The source made the active and inactive calls. Rule as the data show it: active = GI50 up to about 1.1 µM and inactive = higher.
Experiments:
Test in all cases: NCI-60 cell line screen, 48 h
CCRF-CEM = test system: CCRF-CEM
BT-549 = test system: BT-549
ACHN = test system: ACHN
M14 = test system: M14
SK-MEL-28 = test system: SK-MEL-28
HL-60 = test system: HL-60
SK-MEL-5 = test system: SK-MEL-5
SNB-19 = test system: SNB-19
RPMI-8226 = test system: RPMI-8226
MOLT-4 = test system: MOLT-4
K562 = test system: K562
SK-OV-3 = test system: SK-OV-3
NCI-H226 = test system: NCI-H226
Hs-578T = test system: Hs-578T
RXF 393 = test system: RXF 393
CAKI-1 = test system: CAKI-1
UO-31 = test system: UO-31
NCI-H23 = test system: NCI-H23
HCT-15 = test system: HCT-15
HCC 2998 = test system: HCC 2998
SF-268 = test system: SF-268
Malme-3M = test system: Malme-3M
HCT-116 = test system: HCT-116
MCF7 = test system: MCF7
A549 = test system: A549
OVCAR-3 = test system: OVCAR-3
T47D = test system: T47D
MDA-N = test system: MDA-N
HT-29 = test system: HT-29
SF-539 = test system: SF-539
MDA-MB-435 = test system: MDA-MB-435
UACC-257 = test system: UACC-257
OVCAR-5 = test system: OVCAR-5
U-251 = test system: U-251
COLO 205 = test system: COLO 205
NCI-H460 = test system: NCI-H460
SN12C = test system: SN12C
HOP-62 = test system: HOP-62
HOP-92 = test system: HOP-92
786-0 = test system: 786-0
A498 = test system: A498
SR = test system: SR
NCI/ADR-RES = test system: NCI/ADR-RES
DU-145 = test system: DU-145
KM12 = test system: KM12
TK-10 = test system: TK-10
SF-295 = test system: SF-295
MDA-MB-231 = test system: MDA-MB-231
NCI-H522 = test system: NCI-H522
OVCAR-8 = test system: OVCAR-8
UACC-62 = test system: UACC-62
PC-3 = test system: PC-3
LOX IMVI = test system: LOX IMVI
SK-MEL-2 = test system: SK-MEL-2
SNB-75 = test system: SNB-75
EKVX = test system: EKVX
SW-620 = test system: SW-620
OVCAR-4 = test system: OVCAR-4
IGROV-1 = test system: IGROV-1

Compound: CCOC(=O)c1c(N2CCOCC2)[nH]c(=O)c(C(c2c(O)c(C(=O)OCC)c(N3CCOCC3)[nH]c2=O)C(C)C)c1O
- GI50 (CCRF-CEM): > 100 µM (inactive)
- GI50 (BT-549): > 100 µM (inactive)
- GI50 (ACHN): > 100 µM (inactive)
- GI50 (M14): > 100 µM (inactive)
- GI50 (SK-MEL-28): > 100 µM (inactive)
- GI50 (HL-60): > 100 µM (inactive)
- GI50 (SK-MEL-5): > 100 µM (inactive)
- GI50 (SNB-19): 83.6 µM (inactive)
- GI50 (RPMI-8226): > 100 µM (inactive)
- GI50 (MOLT-4): > 100 µM (inactive)
- GI50 (K562): > 100 µM (inactive)
- GI50 (SK-OV-3): 86.5 µM (inactive)
- GI50 (NCI-H226): > 100 µM (inactive)
- GI50 (Hs-578T): 47.9 µM (inactive)
- GI50 (RXF 393): > 100 µM (inactive)
- GI50 (CAKI-1): > 100 µM (inactive)
- GI50 (UO-31): > 100 µM (inactive)
- GI50 (NCI-H23): > 100 µM (inactive)
- GI50 (HCT-15): > 100 µM
- GI50 (HCC 2998): > 100 µM (inactive)
- GI50 (SF-268): > 100 µM (inactive)
- GI50 (Malme-3M): > 100 µM (inactive)
- GI50 (HCT-116): > 100 µM (inactive)
- GI50 (MCF7): > 100 µM (inactive)
- GI50 (A549): > 100 µM (inactive)
- GI50 (OVCAR-3): > 100 µM (inactive)
- GI50 (T47D): > 100 µM (inactive)
- GI50 (MDA-N): > 100 µM (inactive)
- GI50 (HT-29): > 100 µM (inactive)
- GI50 (SF-539): > 100 µM (inactive)
- GI50 (MDA-MB-435): > 100 µM (inactive)
- GI50 (UACC-257): > 100 µM (inactive)
- GI50 (OVCAR-5): 73.8 µM (inactive)
- GI50 (U-251): > 100 µM (inactive)
- GI50 (COLO 205): > 100 µM (inactive)
- GI50 (NCI-H460): > 100 µM (inactive)
- GI50 (SN12C): > 100 µM (inactive)
- GI50 (HOP-62): 60.4 µM (inactive)
- GI50 (HOP-92): 80.5 µM (inactive)
- GI50 (786-0): 60.1 µM (inactive)
- GI50 (A498): > 100 µM (inactive)
- GI50 (SR): > 100 µM (inactive)
- GI50 (NCI/ADR-RES): > 100 µM (inactive)
- GI50 (DU-145): > 100 µM (inactive)
- GI50 (KM12): > 100 µM (inactive)
- GI50 (TK-10): > 100 µM (inactive)
- GI50 (SF-295): 58.3 µM (inactive)
- GI50 (MDA-MB-231): > 100 µM (inactive)
- GI50 (NCI-H522): > 100 µM (inactive)
- GI50 (OVCAR-8): > 100 µM (inactive)
- GI50 (UACC-62): > 100 µM (inactive)
- GI50 (PC-3): > 100 µM (inactive)
- GI50 (LOX IMVI): > 100 µM (inactive)
- GI50 (SK-MEL-2): > 100 µM (inactive)
- GI50 (SNB-75): 22.4 µM (inactive)
- GI50 (EKVX): > 100 µM (inactive)
- GI50 (SW-620): > 100 µM (inactive)
- GI50 (OVCAR-4): > 100 µM (inactive)

Compound: COc1ccc(C2CCc3nc4nc(N)nc(N)c4cc3C2)cc1 (centres undefined)
- GI50 (BT-549): 25.5 µM (inactive)
- GI50 (ACHN): 6.64 µM (inactive)
- GI50 (M14): 86.9 µM (inactive)
- GI50 (SK-MEL-28): 20.8 µM (inactive)
- GI50 (HL-60): 54 µM (inactive)
- GI50 (SK-MEL-5): 62.5 µM (inactive)
- GI50 (SNB-19): 6.65 µM (inactive)
- GI50 (RPMI-8226): 32.6 µM (inactive)
- GI50 (MOLT-4): 22.1 µM (inactive)
- GI50 (K562): 16.4 µM (inactive)
- GI50 (SK-OV-3): 10.1 µM (inactive)
- GI50 (NCI-H226): 49.4 µM (inactive)
- GI50 (Hs-578T): 15.6 µM (inactive)
- GI50 (RXF 393): 16.3 µM (inactive)
- GI50 (CAKI-1): 54.1 µM (inactive)
- GI50 (HCT-15): 58.9 µM
- GI50 (HCC 2998): 31.8 µM (inactive)
- GI50 (SF-268): 15.8 µM (inactive)
- GI50 (Malme-3M): 24.5 µM (inactive)
- GI50 (HCT-116): 26 µM (inactive)
- GI50 (MCF7): 15.2 µM (inactive)
- GI50 (A549): 39.3 µM (inactive)
- GI50 (OVCAR-3): 17.3 µM (inactive)
- GI50 (T47D): 21 µM (inactive)
- GI50 (MDA-N): 38.3 µM (inactive)
- GI50 (HT-29): 29.2 µM (inactive)
- GI50 (SF-539): 12.4 µM (inactive)
- GI50 (MDA-MB-435): 27.4 µM (inactive)
- GI50 (UACC-257): > 100 µM (inactive)
- GI50 (OVCAR-5): > 100 µM (inactive)
- GI50 (U-251): 9.64 µM (inactive)
- GI50 (COLO 205): 40.3 µM (inactive)
- GI50 (NCI-H460): 40.6 µM (inactive)
- GI50 (SN12C): 6.7 µM (inactive)
- GI50 (HOP-62): 12.1 µM (inactive)
- GI50 (HOP-92): 1.2 µM (inactive)
- GI50 (786-0): 3.13 µM (inactive)
- GI50 (A498): 22.2 µM (inactive)
- GI50 (IGROV-1): 9.68 µM (inactive)
- GI50 (SR): 24.3 µM (inactive)
- GI50 (NCI/ADR-RES): 39.2 µM (inactive)
- GI50 (DU-145): 39.7 µM (inactive)
- GI50 (KM12): 30.8 µM (inactive)
- GI50 (TK-10): 8.34 µM (inactive)
- GI50 (SF-295): 16.8 µM (inactive)
- GI50 (MDA-MB-231): 14.8 µM (inactive)
- GI50 (NCI-H522): 25.4 µM (inactive)
- GI50 (OVCAR-8): 10.2 µM (inactive)
- GI50 (UACC-62): 31.5 µM (inactive)
- GI50 (PC-3): 85.1 µM (inactive)
- GI50 (LOX IMVI): 12.1 µM (inactive)
- GI50 (SK-MEL-2): 18.9 µM (inactive)
- GI50 (SNB-75): 1.67 µM (inactive)
- GI50 (EKVX): 41.2 µM (inactive)
- GI50 (SW-620): 36.6 µM (inactive)
- GI50 (OVCAR-4): 22.8 µM (inactive)
